Laboratory results as given in patent US12643867B2, “Compositions and uses thereof” (University of Virginia Patent Foundation, priority 2017, dated 2026).

How the values were obtained:
Type in all cases: binding
recombinant DGKα = target: T1, recombinant DGKα (Rattus norvegicus, UniProt P51556); test: Gel-based ATP acyl phosphate chemical proteomic assay; details: compounds 100 μM (ATP 1 mM; RF001 at indicated concentrations), 30 min; probe 10 μM
T1 construct: expressed in transfected cells; host or cells: HEK293T (SILAC HEK293T for LC-MS)
T1 sequence (P51556 whole entry): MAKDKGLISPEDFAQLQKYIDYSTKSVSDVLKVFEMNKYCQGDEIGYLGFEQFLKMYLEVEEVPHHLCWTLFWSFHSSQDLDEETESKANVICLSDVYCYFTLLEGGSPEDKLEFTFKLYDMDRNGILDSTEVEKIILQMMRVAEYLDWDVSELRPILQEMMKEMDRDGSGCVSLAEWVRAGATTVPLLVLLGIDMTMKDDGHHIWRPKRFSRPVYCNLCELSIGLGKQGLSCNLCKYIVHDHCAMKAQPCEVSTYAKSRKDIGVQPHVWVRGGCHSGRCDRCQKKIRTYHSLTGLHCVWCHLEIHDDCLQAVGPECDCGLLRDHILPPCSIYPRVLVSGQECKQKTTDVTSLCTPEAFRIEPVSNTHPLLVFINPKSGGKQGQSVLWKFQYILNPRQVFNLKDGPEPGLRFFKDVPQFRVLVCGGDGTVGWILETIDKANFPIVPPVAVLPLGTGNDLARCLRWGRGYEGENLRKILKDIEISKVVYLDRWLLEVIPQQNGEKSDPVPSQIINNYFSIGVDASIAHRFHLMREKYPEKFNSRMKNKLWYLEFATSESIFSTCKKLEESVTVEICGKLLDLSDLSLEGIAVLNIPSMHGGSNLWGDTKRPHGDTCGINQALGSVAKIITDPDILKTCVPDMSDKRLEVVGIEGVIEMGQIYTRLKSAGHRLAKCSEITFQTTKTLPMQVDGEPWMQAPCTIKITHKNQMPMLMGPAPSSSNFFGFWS
Experimental: Cell pellets were resuspended in kinase buffer (Dulbecco's PBS (DPBS, Hyclone), 20 mM MgCl2, EDTA-free protease inhibitors (Pierce)) and then lysed by sonication (3×1 sec pulse, 20% amplitude). The cell lysates were then subjected to centrifugation (100,000×g, 45 min at 4° C.) to isolate the cytosolic fraction in the supernatant and the membrane fraction as a pellet. The membrane pellet was resuspended in kinase buffer by sonication. […] The only exception was experiments involving DGKE; recombinant DGKE protein was most prominently expressed in the membrane fraction and so this fraction was utilized to study DGKE enzyme (see FIG. 8). Protein concentrations were measured using the Bio-Rad DC protein assay. Samples were stored at −80° C. until use.
Proteome concentration was adjusted to 2 mg/mL in kinase buffer. Proteomes were first pre-treated with compound (0.6 μL, 50× stock in DMSO) mixed with gentle flicking, and incubated for 30 min at 25° C. in a microfuge tube (30 μL reaction volume). […] Reactions were then quenched with 10 AL of 4×SDS-PAGE loading buffer. Protein samples (15 μL) were loaded onto 4-20% TGX Stain-Free Protein Midi Gel and resolved by SDS-PAGE at 150V for 55 min. Proteins were then transferred to a nitrocellulose blot by Bio-Rad Trans-Blot Turbo Transfer System (25V. 10 min) to enhance sensitivity. The nitrocellulose blot was then incubated in blocking solution (30 mL, 3% BSA in TBS-T) for 1 h at 25° C. with gentle shaking. The blot was then transferred immediately to antibody solution (30 mL, 5% BSA in ddH2O with 0.1% Tween20 and 1:3000 Streptavidin DyLight 550) and incubated for 2 h at 25° C. with gentle shaking. The blot was then rinsed 5 times for 5 min in TBS-T. and then transferred into ddH2O. The blot was then imaged by in-blot fluorescence scanning on a ChemiDoc MP Imaging System. Fluorescence intensity signals were normalized to total lane protein using the Bio-rad Stain Free imaging (Posch et al., 2013).
The percentage of enzyme activity remaining was determined by comparing integrated band intensities or luminescence of inhibitor—with DMSO-treated samples for gel-based chemical proteomic or ADP-glo assays, respectively. For both chemical proteomic and ADP-glo methods, nonlinear regression analysis was used to determine the IC50 values from a dose-response curve generated using GraphPad Prism. Data are shown as mean±s.e.m. Determination of significance was performed by one-way ANOVA. All statistical analyses were performed using GraphPad Prism.

[1] = target: T2, DGKA (Diacylglycerol kinase alpha) (Rattus norvegicus, UniProt P51556); test: SILAC LC-MS ATP acyl phosphate probe competition, recombinant DGK-HEK293T lysates
T2 construct: expressed in transfected cells; host or cells: HEK293T (SILAC HEK293T for LC-MS)
T2 sequence (P51556 whole entry): as above
Experimental: All other vectors were gifted to Dr. Kevin Lynch (University of Virginia, School of Medicine) by Dr. Kaoru Goto (Yamagata University, School of Medicine) and Dr. Fumio Sakane (Chiba University) and were kindly shared with us: pcDNA3-FLAG-DGKA (rat), pCMV-Tag2B-FLAG-DGKQ (human), pcDNA3-DGKE-3×Flag (human), and pCMV-SPORT6-HA-DGKZ (human). HEK293T cells were plated at a concentration of 400,000 cells in complete DMEM and grown to 50-60% confluency. A polyethyleneimine (PEI) stock solution was prepared (1 mg/mL, pH 7.4) and filter sterilized. Serum-free DMEM (600 μL) was mixed gently with 2.6 μg DNA and 20 μL of sterile PEI (1 mg/mL, pH 7.4) in a sterile microfuge tube. Mixtures were incubated for 30 min at 25° C. The mixture was then added drop-wise to each 10 cm^2 plate, rocked back and forth to mix, and placed back in the incubator. Cell pellets were harvested after two full days of growth, snap-frozen in liquid N2, and stored at −80° C. until use. Recombinant proteins were produced by transient transfection in SILAC HEK293T cells using the procedure described above, except that cells were plated at a concentration of 1×10^6 cells per 10 cm^2 plate and grown to ˜70% confluency prior to introducing transfection mixture.
Proteomes were diluted to 2 mg/ml in kinase buffer. The light and heavy proteomes (0.5 mg, 250 μL total reaction volume) were pre-treated with vehicle or compound, respectively (5 μL, DMSO (light) or 50× stock in DMSO (heavy)), mixed gently, and incubated at 25° C. for 30 min. […] After incubation, matched light and heavy proteomes were transferred and mixed in a 1:1 ratio in a two-dram vial containing 4:1:3 MeOH/CHCl3/H2O (2 mL MeOH, 500 AL CHCl3, 1.5 mL H2O) for extraction of proteins to remove excess probe, quickly vortexed, and centrifuged at 1,400×g for 3 min to pellet protein. Organic and aqueous layers were removed using a Pasteur pipette, and the protein pellet was transferred to a screw-top tube in 600 μL MeOH. A second extraction was performed by adding CHCl3 (150 μL) and H2O (600 μL) to each sample, vortexed, and centrifuged at 1,400×g for 3 min to pellet protein. Organic and aqueous layers were removed by pipetting. MeOH added to pellet (600 μL) and pellets were re-suspended by sonication (3×1 sec pulse, 20% amplitude) for a final extraction. Samples were then centrifuged at 17,000×g for 5 min to pellet protein and MeOH was removed by pipetting. […] To desalt the samples, each was transferred to a two-dram glass vial, and to the vial 4:1:2 MeOH/CHCl3/H2O (2 mL MeOH, 500 AL CHCl3, 1 mL H2O) was added. The vials were vortexed quickly, spun at 1.400×g for 3 min to pellet protein, and aqueous and organic layers were removed using a Pasteur pipette. The resulting protein pellet was transferred to a screw-top tube in 600 μL MeOH, and then CHCl3 (150 μL) and HO (600 μL) were added to extract protein a second time. The samples were vortexed quickly, centrifuged at 1,400×g to pellet protein, and the aqueous and organic layers were removed by pipetting. Resulting protein pellet was suspended in MeOH (600 μL) via sonication (3×1 sec pulse, 20% amplitude), centrifuged at 17,000×g for 5 min to pellet protein, and MeOH removed by pipetting. Protein pellets were then re-suspended in 25 mM ammonium bicarbonate (500 μL) and digested with 7.5 μg Trypsin/Lys-C(Promega, 15 μL, 0.5 μg/μL) for 3 h at 37° C. Avidin-agarose beads (Thermo Scientific Pierce, 100 AL aliquot per sample) were washed three times by adding 10 mL DPBS, centrifuged at 1,400×g for 1 min, and decanting. This wash step was repeated for a total of 3 times. Digested protein samples were mixed with washed avidin beads (100 μL) and brought to a volume of 5.5 mL with DPBS in a 15 mL conical and rotated for 1 h to enrich samples for the covalent desthiobiotin modification. The beads were washed with 25 mM ammonium bicarbonate (3× with 10 mL, centrifuge at 1,400×g for 3 min, decant) and then H2O (3× with 10 mL, centrifuge at 1,400×g for 3 min, decant).

[2] = target: T3, hDGKa C1 domain cysteines (Homo sapiens, UniProt P23743); test: JWB003 labeling competition in vitro
T3 construct: expressed in transfected cells; host or cells: HEK293T
T3 sequence (P23743 whole entry, the tested form may be a part): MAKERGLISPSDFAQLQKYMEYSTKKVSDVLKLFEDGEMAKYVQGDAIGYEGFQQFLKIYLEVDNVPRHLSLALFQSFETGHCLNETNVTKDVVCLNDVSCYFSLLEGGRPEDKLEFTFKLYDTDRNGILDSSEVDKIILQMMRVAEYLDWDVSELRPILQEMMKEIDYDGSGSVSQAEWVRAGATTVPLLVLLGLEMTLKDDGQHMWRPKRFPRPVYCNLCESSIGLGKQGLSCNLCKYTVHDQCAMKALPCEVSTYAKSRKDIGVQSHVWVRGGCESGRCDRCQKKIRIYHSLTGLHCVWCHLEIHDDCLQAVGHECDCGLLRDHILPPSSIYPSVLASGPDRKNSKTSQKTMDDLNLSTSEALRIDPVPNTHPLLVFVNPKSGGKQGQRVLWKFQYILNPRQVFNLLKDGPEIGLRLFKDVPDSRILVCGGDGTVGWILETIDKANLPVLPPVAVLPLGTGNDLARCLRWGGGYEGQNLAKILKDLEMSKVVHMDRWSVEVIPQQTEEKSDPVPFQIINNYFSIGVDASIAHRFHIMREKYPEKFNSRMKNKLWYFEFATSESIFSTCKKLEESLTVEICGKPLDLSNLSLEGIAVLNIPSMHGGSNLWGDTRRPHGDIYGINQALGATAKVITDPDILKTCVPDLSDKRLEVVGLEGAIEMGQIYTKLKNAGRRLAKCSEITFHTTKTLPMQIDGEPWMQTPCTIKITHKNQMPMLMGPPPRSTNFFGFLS
Experimental: • 1. HEK293T cells were harvested in cold PBS. • a. Cells were transferred to Eppendorf tube. • 2. Cells were lysed via tip sonicator. • 3. Cells were fractionated into membrane and soluble fraction. • a. 100,000×G for 45 minutes at 4 degree. • b. Supernatant was separated from cell pellet. • 4. Dilute proteomes to 1 mg/mL in PBS and aliquot appropriate reaction volume (49 μL for probe only; 48 μL for competition+probe) • 5. Cells were treated with 50× inhibitor. • a. Incubated for 1Hr at 37 degree. • 6. Cells were treated with 50× Probe (JWB003). • a. Incubated for 1Hr at 37 degree. • 7. Add 6 μL of master mix to each alkyne probe-labeled sample. • a. 1 μL of 1.25 mM Rh-N3 • b. 1 μL of fresh 50 mM TCEP • c. 3 μL of 1.7 mM TBTA stock • d. 1 μL of 50 mM CuSO4 • 8. Vortex samples. • 9. Incubate at room temperature for 1 hr • 10. Quench with 17 μL of 4×SDS-PAGE loading buffer+βME and vortex tubes. • 11. Analyze 30 μL samples by SDS-PAGE immediately. [B] Labeling HEK293T Cells to Determine Target Proteins of JWB003 in Live Cells (In Situ) • 1. Complete media was removed from HEK293T cells and replaced with serum free media containing JWB003 at the appropriate final concentration • a. Cells were placed in incubator for appropriate time at 37 degree 5% CO2 • 2. Cells were washed • a. 2× warm PBS • b. 2× cold PBS • c. Harvest cells in cold PBS • 3. Cells were transferred to Eppendorf tube • 4. Cells were lysed via tip sonicator • 5. Cells were fractionated into membrane and soluble fraction • a. 100,000×G for 45 minutes at 4 degrees • b. Supernatant was separated from cell pellet. • 6. Dilute proteomes to 1 mg/mL and aliquot appropriate reaction volume (50 μL) • 7. Add 6 μL of master mix to each alkyne probe-labeled sample. • a. 1 μL of 1.25 mM Rh-N3 • b. 1 μL of fresh 50 mM TCEP • c. 3 μL of 1.7 mM TBTA stock • d. 1 μL of 50 mM CuSO4 • 8. Vortex samples. • 9. Incubate at room temperature for 1 hr. • 10. Quench with 17 μL of 4×SDS-PAGE loading buffer+βME and vortex tubes. • 11. Analyze 30 μL samples by SDS-PAGE immediately. [C] […]

SMILES	blockade of DGKα ATP probe labeling (recombinant DGKα)	competition at probe-modified peptides from DAGKc and DAGKa subdomains of DGKα ([1]; ATP 1 mM)	inhibition at 1000 µM ([1]; read-out: inhibition of probe labeling at DGKα C1 site (K237))	inhibition of JWB003 probe labeling of hDGKa [2]
Nc1ncnc2c1ncn2[C@@H]1O[C@H](COP(=O)(O)OP(=O)(O)OP(=O)(O)O)[C@@H](O)[C@H]1O [ATP, adenosine triphosphate]	global reductions in fluorescent protein signals	~94%	~58%	–
CCCCCCCCCCCCCC(=O)O[C@@H]1[C@@H](C)[C@@]2(O)[C@@H](C=C(CO)C[C@]3(O)C(=O)C(C)=C[C@@H]23)[C@@H]2C(C)(C)[C@]12OC(C)=O [PMA]	–	–	–	Probe labeling is inhibited
NC(=O)CI [iodoacetamide]	–	–	–	labeling is inhibited
